According to patent US7638509B2, “Diene compounds and formulations” (priority 2003, dated 2009):
Numbering of substitutions follows the chain as printed.

Legend:
LNCaP cells = test: LNCaP cell growth, cell count by hemocytometer; type: cell-based, human
Experimental: The mean±SD of three separate experiments was determined. […] Total cell number was counted by hemocytometer. The mean of at least three determinations was determined.

AR [1] = target: T1, AR (Homo sapiens, UniProt P10275, T878A); test: Competitive [3H]-R1881 ligand binding assay, LNCaP whole cell extracts; details: 1 nM [3H]-R1881, unlabeled ligand 1-10,000 nM, relative to DHT
T1 construct: LNCaP without transfection; endogenous in cells; host or cells: LNCaP
T1 sequence (P10275 1-920 T878A): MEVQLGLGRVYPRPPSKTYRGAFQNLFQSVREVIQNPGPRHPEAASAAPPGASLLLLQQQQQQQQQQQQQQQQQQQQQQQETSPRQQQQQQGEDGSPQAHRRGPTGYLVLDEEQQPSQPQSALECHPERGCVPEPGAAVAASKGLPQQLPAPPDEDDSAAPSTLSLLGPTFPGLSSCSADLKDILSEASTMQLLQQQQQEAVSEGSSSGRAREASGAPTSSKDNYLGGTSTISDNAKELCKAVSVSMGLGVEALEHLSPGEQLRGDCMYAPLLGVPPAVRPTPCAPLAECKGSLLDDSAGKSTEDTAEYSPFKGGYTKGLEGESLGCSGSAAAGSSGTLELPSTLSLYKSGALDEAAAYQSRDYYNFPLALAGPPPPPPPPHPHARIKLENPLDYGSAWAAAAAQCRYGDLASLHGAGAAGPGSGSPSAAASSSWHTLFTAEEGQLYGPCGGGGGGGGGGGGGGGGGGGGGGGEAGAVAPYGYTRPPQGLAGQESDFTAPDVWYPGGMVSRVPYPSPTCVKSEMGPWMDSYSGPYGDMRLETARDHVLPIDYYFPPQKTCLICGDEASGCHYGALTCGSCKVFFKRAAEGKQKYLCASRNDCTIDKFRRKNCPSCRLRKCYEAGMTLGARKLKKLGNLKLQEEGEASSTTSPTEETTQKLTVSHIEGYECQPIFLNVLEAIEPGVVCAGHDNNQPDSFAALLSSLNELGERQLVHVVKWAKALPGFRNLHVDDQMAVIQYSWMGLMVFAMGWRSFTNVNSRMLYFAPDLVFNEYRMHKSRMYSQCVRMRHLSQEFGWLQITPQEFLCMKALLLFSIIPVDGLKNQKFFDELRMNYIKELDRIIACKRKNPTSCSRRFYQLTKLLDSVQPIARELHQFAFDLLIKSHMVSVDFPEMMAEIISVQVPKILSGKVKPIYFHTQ
Experimental: Ligand Binding Assay. Whole cell extracts from COS-1 with transient transfection of pSG5-AR, or LNCaP without transfection, were incubated for 2 h at 37° C. with 1 nM [^3H]-synthetic androgen methyltrienolone (R1881) in the presence and absence of increasing concentrations (1-10,000 nM) of unlabeled ligands. Then, hydroxyapatite (Bio-Rad) was added and stirred for 15 min at 4° C. After centrifugation and washing, radioactivity was determined by scintillation counting.
Clinically available antiandrogens have an affinity for the AR, allowing a competition with androgens for binding. To determine whether ADEK has this common feature of AR antagonists, the competitive androgen binding assay was performed.

AR [2] = target: T2, AR (Homo sapiens, UniProt P10275); test: Steroid hormone specificity, androgenic activity in PC-3 cells; type: cell-based; details: PC-3, ADEK at 0.01 mM, 0.1 mM and 1.0 mM, 24 h
T2 construct: expressed in transfected cells; host or cells: PC-3
T2 sequence (P10275 1-920): T1 sequence (P10275 1-920 T878A) with A878T
Experimental: Cell Culture, Transfection, and Reporter Gene Assay. The human prostate cancer cell lines, LNCaP, PC-3, and DU145, and non-prostate cancer cell line COS-1 were maintained in RPMI or Dulbecco's modified Eagle's medium (DMEM) (Life Technologies) supplemented with 10% fetal bovine serum (FBS). Transfections and luciferase (Luc) assays were performed as previously described (Miyamoto, H., Yeh, S., Wilding, G. & Chang, C. (1998) Proc. Natl. Acad. Sci. USA 95, 7379-7384; Miyamoto, H., Rahman, M., Takatera, H., Kang, H.-Y., Yeh, S., Chang, H.-C., Nishimura, K., Fujimoto, N. & Chang, C. (2002) J. Biol. Chem. 277, 4609-4617). Briefly, cells seeded to reach a density of 50-60% confluence in 12 well tissue culture plates were transfected with 1.5 μg of DNA according to “SuperFect transfection” instructions (Qiagen). […] The Luc activity was determined using a Dual-Luciferase Reporter Assay System (Promega) and luminometer.
Steroid Hormone Specificity of ADEK. To characterize the steroid hormone activity of ADEK, PC-3 cells were transfected with steroid receptor/reporter (progesterone receptor (PR)/MMTV-Luc, glucocorticoid receptor (GR)/MMTV-Luc, or estrogen receptor (ER)/ERE-Luc) and analyzed for expression of the Luc reporter gene. […] The Luc activity was measured relative to that of ETOH treatment (set as 1-fold). […]

CC(=O)O[C@H]1C=C[C@@]2(C)C(=CC[C@@H]3[C@@H]2CC[C@@]2(C)[C@H]3CCC23OCCO3)C1 [ADEK, 3β-acetoxy-17,17-ethylenedioxyandrosta-1,5-diene]
effect on LNCaP cell growth, DHT alone or compound with DHT (in words) (LNCaP cells; 1 nM DHT, 1 μM compound in presence of DHT): antagonized this DHT effect
effect on LNCaP cell growth in the absence of androgen (in words) (LNCaP cells; 1 μM compound, no DHT): marginally increased growth
RBA in LNCaP (AR [1]): 11.1
androgenic activity (in words) (AR [2]): no significant
